Assays:
FGFR3 = molecular target: T1, FGFR3 (Homo sapiens, UniProt P22607); assay: FGFR3 in vitro kinase inhibitory activity assay (TRF); format: biochemical; details: 8 μM ATP, 3 hours; read-out: FGFR3 IC50(μM) or % I
T1 construct: purchased Upstate
Method: (§1) FGFR3, VEGFR2 and PDGFR in vitro Kinase Inhibitory Activity Assays
(§2) Enzymes (from Upstate), prepared at 2× final concentration, were incubated with test compounds, biotinylated Flt3 substrate (biotin-VASSDNEYFYVDF) (Cell Signalling Technology Inc.) and ATP in the appropriate assay buffer (Table 1). The reaction was allowed to proceed for 3 hours (FGFR3), 1 hour (VEGFR2, PDGFR-beta) at room temperature on a plate shaker at 700 rpm before being stopped with 35 mM EDTA, pH 8 (FGFR3, VEGFR2) or 55 mM EDTA, pH 8 (PDGFR-beta). 5× detection mix (50 mM HEPES pH 7.5, 0.1% BSA, 11.34 nM Eu-anti-pY (PY20) (PerkinElmer) 74 nM SA-XL665 (Cisbio) for FGFR3, 50 mM HEPES, pH 7.5, 0.1% BSA, 11.34 nM Eu-anti-pY (PY20), 187.5 nM SA-XL665 for VEGFR2 and 50 mM HEPES, pH 7.5, 0.1% BSA, 11.34 nM Eu-anti-pY (PT66) (PerkinElmer), 375 nM SA-XL665 (Cisbio) for PDGFR-beta) was then added to each well and the plate sealed and incubated at room temperature for one hour on a plate shaker at 700 rpm. The plate was then read on a Packard Fusion plate reader or a BMG Pherastar both in TRF mode.

VEGFR2 = molecular target: T2, VEGFR2 (Homo sapiens, UniProt P35968); assay: VEGFR2 in vitro kinase inhibitory activity assay (TRF); format: biochemical; details: 0.5 μM ATP, 1 hour; read-out: VEGFR2 IC50(μM) or % I
T2 construct: purchased Upstate
T2 sequence (P35968 20-1356): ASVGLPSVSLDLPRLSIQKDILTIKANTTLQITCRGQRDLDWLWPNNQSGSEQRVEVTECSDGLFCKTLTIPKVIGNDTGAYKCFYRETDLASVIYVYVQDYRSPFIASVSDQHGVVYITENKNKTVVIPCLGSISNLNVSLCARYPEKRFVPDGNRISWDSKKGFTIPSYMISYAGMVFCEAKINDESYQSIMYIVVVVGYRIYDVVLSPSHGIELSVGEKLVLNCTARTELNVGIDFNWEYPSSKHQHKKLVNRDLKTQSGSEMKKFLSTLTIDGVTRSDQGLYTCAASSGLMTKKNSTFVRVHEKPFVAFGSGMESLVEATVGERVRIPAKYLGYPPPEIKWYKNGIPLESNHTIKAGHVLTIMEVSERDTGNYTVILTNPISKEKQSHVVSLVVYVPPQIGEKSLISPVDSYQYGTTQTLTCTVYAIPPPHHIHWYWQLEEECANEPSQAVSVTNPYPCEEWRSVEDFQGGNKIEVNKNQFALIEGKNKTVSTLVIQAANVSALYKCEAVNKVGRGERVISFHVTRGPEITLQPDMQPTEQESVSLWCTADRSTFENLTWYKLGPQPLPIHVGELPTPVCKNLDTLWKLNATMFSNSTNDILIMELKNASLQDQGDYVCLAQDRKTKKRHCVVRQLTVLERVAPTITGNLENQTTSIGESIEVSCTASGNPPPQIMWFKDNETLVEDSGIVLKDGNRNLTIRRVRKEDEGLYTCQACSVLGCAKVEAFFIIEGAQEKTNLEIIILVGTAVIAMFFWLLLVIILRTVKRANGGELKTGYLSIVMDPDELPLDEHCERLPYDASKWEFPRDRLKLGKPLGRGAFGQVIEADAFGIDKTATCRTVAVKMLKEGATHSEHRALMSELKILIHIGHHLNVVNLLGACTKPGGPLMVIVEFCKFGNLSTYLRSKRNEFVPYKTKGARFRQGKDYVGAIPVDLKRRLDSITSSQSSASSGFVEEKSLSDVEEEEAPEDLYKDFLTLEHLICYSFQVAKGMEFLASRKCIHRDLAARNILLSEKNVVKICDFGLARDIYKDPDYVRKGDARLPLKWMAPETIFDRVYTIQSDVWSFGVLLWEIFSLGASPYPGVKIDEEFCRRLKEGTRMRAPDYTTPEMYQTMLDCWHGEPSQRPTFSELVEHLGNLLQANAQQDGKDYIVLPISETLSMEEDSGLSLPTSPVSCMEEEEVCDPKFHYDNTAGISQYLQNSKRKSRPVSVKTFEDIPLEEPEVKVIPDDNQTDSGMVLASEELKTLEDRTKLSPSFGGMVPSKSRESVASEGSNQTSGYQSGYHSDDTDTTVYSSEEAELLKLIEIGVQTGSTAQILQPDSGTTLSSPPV
Method: as §1, §2

[1] = tested on: parental wild-type Ba/F3 cells; assay: Ba/F3 (WT) cell proliferation assay (Alamar Blue); format: cell-based; details: BaF3, 72 hours, read-out: BaF3 WT prolif
Method: (§3) Ba/F3-TEL-FGFR3 & Ba/F3 (WT) Cell Proliferation Assays
(§4) Stably transfected Ba/F3-TEL-FGFR3 cells were plated out into black 96-well tissue culture plates with clear bottoms in RPMI medium containing 10% FBS and 0.25 mg/ml G418 at a density of 5×10^3 cells/well (200 μl per well). The parental wild-type Ba/F3 cells (DSMZ no.: ACC 300) were plated out into black 96-well tissue culture plates with clear bottoms in RPMI medium containing 10% FBS and 2 ng/ml mouse IL-3 (R&D Systems) at a density of 2.5×10^3 cells/well (200 μl per well). Plates were placed in an incubator overnight before adding the compounds the following day. Dilutions of compounds were made in DMSO starting at 10 mM and were diluted into the wells to give a final DMSO concentration of 0.1% in assay. Compounds were left on the cells for 72 hours before the plates were removed from the incubator and 20 μl of Alamar Blue™ (Biosource) was added to each well. Plates were placed in the incubator for 4-6 hours before reading plates at 535 nm (excitation)/590 nm (emission) on a Fusion plate reader (Packard). Where inhibition is high an IC50 can be determined.

Ba/F3-TEL-FGFR3 cells = molecular target: T3, Ba/F3-TEL-FGFR3 cells (Homo sapiens, UniProt P22607); assay: Ba/F3-TEL-FGFR3 cell proliferation assay (Alamar Blue); format: cell-based; details: 72 hours; read-out: BaF3-TEL-FGFR3 prolif
T3 construct: fused on or other part: P41212 (Transcription factor ETV6)
T3 sequence (P22607 whole entry, change not shown, the tested form may be a part): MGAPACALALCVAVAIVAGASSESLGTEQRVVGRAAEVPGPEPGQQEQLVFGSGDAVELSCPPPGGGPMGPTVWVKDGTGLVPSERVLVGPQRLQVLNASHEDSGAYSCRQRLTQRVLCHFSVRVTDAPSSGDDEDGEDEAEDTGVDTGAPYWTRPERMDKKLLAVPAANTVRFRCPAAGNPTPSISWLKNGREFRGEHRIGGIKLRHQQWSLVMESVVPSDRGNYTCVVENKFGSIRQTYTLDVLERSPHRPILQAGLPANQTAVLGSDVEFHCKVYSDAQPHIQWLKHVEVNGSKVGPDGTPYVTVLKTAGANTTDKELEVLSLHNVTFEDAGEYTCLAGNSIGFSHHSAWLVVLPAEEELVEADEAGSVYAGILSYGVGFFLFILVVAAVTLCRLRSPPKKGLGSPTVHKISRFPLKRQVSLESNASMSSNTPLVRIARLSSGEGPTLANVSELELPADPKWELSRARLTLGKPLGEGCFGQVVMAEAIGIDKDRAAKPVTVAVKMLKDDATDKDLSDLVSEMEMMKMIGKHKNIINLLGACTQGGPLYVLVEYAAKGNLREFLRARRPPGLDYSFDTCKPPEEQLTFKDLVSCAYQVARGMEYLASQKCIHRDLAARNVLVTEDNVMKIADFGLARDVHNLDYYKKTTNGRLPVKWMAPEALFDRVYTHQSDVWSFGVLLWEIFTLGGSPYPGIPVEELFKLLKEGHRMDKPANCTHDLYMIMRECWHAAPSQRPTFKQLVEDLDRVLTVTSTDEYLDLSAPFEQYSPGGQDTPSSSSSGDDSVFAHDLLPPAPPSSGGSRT
Method: as §3, §4

T1 sequence (P22607 23-806): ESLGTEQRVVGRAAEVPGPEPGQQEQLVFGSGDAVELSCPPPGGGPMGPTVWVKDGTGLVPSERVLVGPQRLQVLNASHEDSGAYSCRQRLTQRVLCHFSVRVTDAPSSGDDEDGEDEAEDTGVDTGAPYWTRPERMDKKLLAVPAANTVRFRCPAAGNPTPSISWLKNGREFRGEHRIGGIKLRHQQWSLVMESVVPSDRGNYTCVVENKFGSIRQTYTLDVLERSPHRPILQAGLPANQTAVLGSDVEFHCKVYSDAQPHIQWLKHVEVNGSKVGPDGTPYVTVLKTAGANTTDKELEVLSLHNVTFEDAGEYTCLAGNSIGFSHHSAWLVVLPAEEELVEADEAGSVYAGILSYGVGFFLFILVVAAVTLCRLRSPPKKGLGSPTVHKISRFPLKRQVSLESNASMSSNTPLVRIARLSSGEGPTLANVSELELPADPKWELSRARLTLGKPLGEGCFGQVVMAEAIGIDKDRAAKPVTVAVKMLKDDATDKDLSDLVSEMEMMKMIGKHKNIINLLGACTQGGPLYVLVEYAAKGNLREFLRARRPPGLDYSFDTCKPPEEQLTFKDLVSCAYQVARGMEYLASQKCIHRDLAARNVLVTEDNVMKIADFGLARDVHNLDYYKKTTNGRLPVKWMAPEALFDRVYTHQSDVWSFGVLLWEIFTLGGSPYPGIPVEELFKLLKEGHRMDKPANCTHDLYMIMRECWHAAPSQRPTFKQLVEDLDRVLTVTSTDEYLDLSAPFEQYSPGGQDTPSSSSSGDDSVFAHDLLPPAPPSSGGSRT

| SMILES | IC50 (FGFR3) [µM] | IC50 (VEGFR2) [µM] | GI50 (Ba/F3-TEL-FGFR3 cells) [nM] | inhibition at 3 µM ([1]; Mus musculus) [%] | inhibition at 10 µM ([1]; Mus musculus) [%] | inhibition at 1 µM ([1]; Mus musculus, % at 1.00 μM) [%] | IC50 ([1]; with mouse IL-3) [µM] |
| --- | --- | --- | --- | --- | --- | --- | --- |
| O=C(NCC(F)(F)F)Nc1cccc(-c2cnc3cc(C=NOCCCN4CCN(CCO)CC4)ccn23)c1 [Compound 1-39, 1-{3-[7-({3-[4-(2-Hydroxy-ethyl)-piperazin-1-yl]-propoxyimino}-methyl)-imidazo[1,2-a]pyridin-3-yl]-phenyl}-3-(2,2,2-trifluoro-ethyl)-urea] | 0.025 | 0.39 | 1300 | 47 | – | – | – |
| O=C(NCC(F)(F)F)Nc1cccc(-c2cnc3cc(C=NOCCCN4CCC(O)C4)ccn23)c1 (stereo not shown) [Compound 1-38, 1-[3-(7-{[3-(3-Hydroxy-pyrrolidin-1-yl)-propoxyimino]-methyl}-imidazo[1,2-a]pyridin-3-yl)-phenyl]-3-(2,2,2-trifluoro-ethyl)-urea] | 0.026 | 0.39 | 1800 | – | 21 | – | – |
| Cc1cc(CON=Cc2ccn3c(-c4cccc(NC(=O)NCC(F)(F)F)c4)cnc3c2)n(C)n1 [Compound 1-13, 1-(3-{7-[(2,5-Dimethyl-2H-pyrazol-3-ylmethoxyimino)-methyl]-imidazo[1,2-a]pyridin-3-yl}-phenyl)-3-(2,2,2-trifluoro-ethyl)-urea] | 0.03 | 0.66 | 300 | – | – | 46 | – |
| O=C(NCC(F)(F)F)Nc1cccc(-c2cnc3cc(C=NOCCCNC4CCOCC4)ccn23)c1 [Compound 1-37, 1-[3-(7-{[3-(Tetrahydro-pyran-4-ylamino)-propoxyimino]-methyl}-imidazo[1,2-a]pyridin-3-yl)-phenyl]-3-(2,2,2-trifluoro-ethyl)-urea] | 0.028 | 0.27 | 3500 | – | 43 | – | – |
| CC(C)(C)c1nc(CON=Cc2ccn3c(-c4cccc(NC(=O)NCC(F)(F)F)c4)cnc3c2)no1 [Compound 1-14, 1-(3-{7-[(5-tert-Butyl-[1,2,4]oxadiazol-3-ylmethoxyimino)-methyl]-imidazo[1,2-a]pyridin-3-yl}-phenyl)-3-(2,2,2-trifluoro-ethyl)-urea] | 0.027 | 0.68 | 560 | 43 | – | – | – |
| O=C(NCC(F)(F)F)Nc1cccc(-c2cnc3cc(/C(=N/OCCO)C4CC4)ccn23)c1 [Compound 1-32, 1-[3-(7-{Cyclopropyl-[2-hydroxy-ethoxyimino]-methyl}-imidazo[1,2-a]pyridin-3-yl)-phenyl]-3-(2,2,2-trifluoro-ethyl)-urea] | 0.072 | 0.96 | 1100 | – | 50 | – | – |

Now those with a lower IC50 (FGFR3), led by results:

| IC50 (FGFR3) [µM] | IC50 (VEGFR2) [µM] | GI50 (Ba/F3-TEL-FGFR3 cells) [nM] | SMILES | inhibition at 3 µM ([1]; Mus musculus) [%] | inhibition at 10 µM ([1]; Mus musculus) [%] | inhibition at 1 µM ([1]; Mus musculus, % at 1.00 μM) [%] | IC50 ([1]; with mouse IL-3) [µM] |
| --- | --- | --- | --- | --- | --- | --- | --- |
| 0.0077 | 0.38 | 140 | O=C(NCC(F)(F)F)Nc1cccc(-c2cnc3cc(C=NOCc4cccnc4)ccn23)c1 [Compound 1-55, 1-(3-{7-[(Pyridin-3-ylmethoxyimino)-methyl]-imidazo[1,2-a]pyridin-3-yl}-phenyl)-3-(2,2,2-trifluoro-ethyl)-urea] | 51 | – | – | – |
| 0.0035 | 0.051 | 110 | C/C(=N\OCCO)c1ccn2c(-c3cccc(NC(=O)NCC(F)(F)F)c3)cnc2c1 [Compound 1-62, 1-[3-(7-{1-2-Hydroxy-ethoxyimino-ethyl}-imidazo[1,2-a]pyridin-3-yl)-phenyl]-3-(2,2,2-trifluoro-ethyl)-urea] | – | 45 | – | – |
| 0.0185 | 0.584 | 420 | O=C(NCC(F)(F)F)Nc1cccc(-c2cnc3cc(C=NOCCOCCO)ccn23)c1 [Compound 1-7, 1-[3-(7-{[2-(2-Hydroxy-ethoxy)-ethoxyimino]-methyl}-imidazo[1,2-a]pyridin-3-yl)-phenyl]-3-(2,2,2-trifluoro-ethyl)-urea] | 20 | – | – | – |
| 0.014 | 0.23 | 260 | O=C(NCC(F)(F)F)Nc1cccc(-c2cnc3cc(C=NOCc4ccncc4)ccn23)c1 [Compound 1-4, 1-(3-{7-[(Pyridin-4-ylmethoxyimino)-methyl]-imidazo[1,2-a]pyridin-3-yl}-phenyl)-3-(2,2,2-trifluoro-ethyl)-urea] | – | – | – | 5.3 |

From patent US8481531B2, “Bicyclic heterocyclyl derivatives as FGFR kinase inhibitors for therapeutic use” (Astex Therapeutics Ltd, priority 2009, dated 2013)
